From patent US20030129751A1, “Tissue-engineered organs” (priority 2001, published 2003)

Tested on: neointestine
Assay: GLP-2 treatment of rats bearing tissue-engineered small intestine: morphometry and SGLT1 expression
Format: in vivo, rat
Experimental: Neointestinal cysts were engineered by seeding biodegradable polymers with neonatal rat intestinal organoid units. The implantation was also performed with small intestine organoid units that had been labeled with GFP to distinguish and verify engineered tissue from host tissue (FIG. 36). Confirmation of GFP production was obtained by simultaneous in vitro culture of the organoid units. The cysts were matured and anastomosed to the native jejunum of syngenic adult recipients. Histology and surface area calculations were performed, as well as Northern blot and localization analysis of the Na+/glucose cotransporter (SGLT1). GLP-2 treatment augmented the absorptive surface area of engineered intestine […]. Animals were treated with [[…]]GLP-2 (twice daily, 1 μg/g body weight), a long-acting analogue of GLP-2, or vehicle alone (control) for 10 days. Rats were then sacrificed and tissues harvested for analysis. Histological parameters and surface area determinations were done using computer-based morphometry.

[1] = [Gly2]GLP-2 twice daily 1 μg/g body weight, 10 days, mean±S.D.
[2] = [Gly2]GLP-2 twice daily 1 μg/g body weight, 10 days, mean±S.D., p < 0.05

[Gly2]GLP-2 (HGDGSFSDEMNTILDNLAARDFINWLIQTKITD; Glucagon-like peptide 2; UniProt P01275 146-178, looked up, variant A2G) [a long-acting analogue of GLP-2]
SGLT1 mRNA expression in the neointestine (Northern blot, vs vehicle control): two-fold increase | Crypt Width [1]: 63 ± 6 microns | Villus Width [1]: 114 ± 32 microns | Surface Area (mucosal amplification ratio) [2]: 7.3 ± 1.4 | Villus Height [2]: 456 ± 23 microns | SGLT1 expression topography (localization analysis): unperturbed | Expansion of absorptive surface area (vs vehicle control, 10 days): 40%
